Experimental data reported in patent publication US11053204B2, “Pyrimidinyloxy benzene derivatives as herbicides” (FMC Corporation, priority 2015, dated 2021).

Tests used:
Type in all cases: in vivo
[1] = tested on: Italian ryegrass (Lolium multiflorum); test: Test A preemergence, visual injury rating
In short: (§1)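 Pre- and postemergence greenhouse screen. Soil: loam + sand. Spray carrier: solvent mixture, non-phytotoxic, with surfactant. Post timing at 1–2 leaves, height 2–10 cm. Readout: visual injury on a 0–100 scale roughly 10 days after application, untreated plants as reference.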

[2] = tested on: barnyardgrass (Echinochloa crus-galli); test: Test A preemergence, visual injury rating; conditions: for Plant response rating, Barnyardgrass: 31 g ai/ha, 0 to 100 scale, 0 no effect, 100 complete control; for Barnyardgrass plant response rating: 125 g ai/ha, 0 to 100 scale (0 no effect, 100 complete control)
In short: as §1

[3] = tested on: giant foxtail (Setaria faberii); test: Test A preemergence, visual injury rating
In short: as §1

kochia (Kochia scoparia) [4] = test: Test A preemergence, visual injury rating
In short: as §1

[5] = tested on: pigweed (Amaranthus retroflexus); test: Test A preemergence, visual injury rating
In short: as §1

[6] = tested on: ragweed (common ragweed, Ambrosia elatior); test: Test A preemergence, visual injury rating
In short: as §1

[7] = tested on: Italian ryegrass (Lolium multiflorum); test: Test A postemergence, visual injury rating; conditions: 0 to 100 scale, 0 is no effect, 100 is complete control, approximately 10 days
In short: as §1

[8] = tested on: barnyardgrass (Echinochloa crus-galli); test: Test A postemergence, visual injury rating; conditions: 0 to 100 scale, 0 is no effect, 100 is complete control, approximately 10 days
In short: as §1

[9] = tested on: blackgrass (Alopecurus myosuroides); test: Test A postemergence, visual injury rating; conditions: 0 to 100 scale, 0 is no effect, 100 is complete control, approximately 10 days
In short: as §1

corn (Zea mays) = test: Test A postemergence, visual injury rating; conditions: 0 to 100 scale, 0 is no effect, 100 is complete control, approximately 10 days
In short: as §1

[10] = tested on: galium (catchweed bedstraw, Galium aparine); test: Test A postemergence, visual injury rating; conditions: 0 to 100 scale, 0 is no effect, 100 is complete control, approximately 10 days
In short: as §1

[11] = tested on: giant foxtail (Setaria faberii); test: Test A postemergence, visual injury rating; conditions: 0 to 100 scale, 0 is no effect, 100 is complete control, approximately 10 days
In short: as §1

kochia (Kochia scoparia) [12] = test: Test A postemergence, visual injury rating; conditions: 0 to 100 scale, 0 is no effect, 100 is complete control, approximately 10 days
In short: as §1

[13] = tested on: pigweed (Amaranthus retroflexus); test: Test A postemergence, visual injury rating; conditions: 0 to 100 scale, 0 is no effect, 100 is complete control, approximately 10 days
In short: as §1

[14] = tested on: ragweed (common ragweed, Ambrosia elatior); test: Test A postemergence, visual injury rating; conditions: 0 to 100 scale, 0 is no effect, 100 is complete control, approximately 10 days
In short: as §1

[15] = tested on: wheat (Triticum aestivum); test: Test A postemergence, visual injury rating; conditions: 0 to 100 scale, 0 is no effect, 100 is complete control, approximately 10 days
In short: as §1

[16] = tested on: barnyardgrass (Echinochloa crus-galli); test: Test B flooded paddy test, plant response rating; conditions: 250 g ai/ha; Flood; scale of 0 to 100 where 0 is no effect and 100 is complete control; 13 to 15 days
In short: (§2)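 Flooded 3 cm over soil; compound into paddy water; depth kept constant. Greenhouse 13–15 d.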

[17] = tested on: ducksalad (Heteranthera limosa); test: Test B flooded paddy test, plant response rating; conditions: 250 g ai/ha; Flood; scale of 0 to 100 where 0 is no effect and 100 is complete control; 13 to 15 days
In short: as §2

rice (Oryza sativa) = test: Test B flooded paddy test, plant response rating; conditions: 250 g ai/ha; Flood; scale of 0 to 100 where 0 is no effect and 100 is complete control; 13 to 15 days
In short: as §2

[18] = tested on: sedge, umbrella (small-flower umbrella sedge, Cyperus difformis); test: Test B flooded paddy test, plant response rating; conditions: 250 g ai/ha; Flood; scale of 0 to 100 where 0 is no effect and 100 is complete control; 13 to 15 days
In short: as §2

[19] = 31 g ai/ha, 0 to 100 scale, 0 no effect, 100 complete control
[20] = 125 g ai/ha, 0 to 100 scale (0 no effect, 100 complete control)

| SMILES | Plant response rating, Ryegrass, Italian [1, 19] | Plant response rating, Ryegrass, Italian [1, 20] | Plant response rating, Barnyardgrass [2] | Barnyardgrass plant response rating [2] | Plant response rating, Foxtail, Giant [3, 19] | Plant response rating, Foxtail, Giant [3, 20] | Plant response rating, Kochia (kochia (Kochia scoparia) [4]; [19]) | Plant response rating, Kochia (kochia (Kochia scoparia) [4]; [20]) | Plant response rating, Pigweed [5, 19] | Plant response rating, Pigweed [5, 20] | Plant response rating, Ragweed [6, 19] | Plant response rating, Ragweed [6, 20] | Ryegrass, Italian plant response rating ([7]; 31 g ai/ha) | Ryegrass, Italian plant response rating ([7]; 125 g ai/ha) | Barnyardgrass plant response rating ([8]; 31 g ai/ha) | Barnyardgrass plant response rating ([8]; 125 g ai/ha) | Blackgrass plant response rating ([9]; 31 g ai/ha) | Blackgrass plant response rating ([9]; 125 g ai/ha) | Corn plant response rating (corn (Zea mays); 31 g ai/ha) | Corn plant response rating (corn (Zea mays); 125 g ai/ha) | also measured |
| --- | --- | --- | --- | --- | --- | --- | --- | --- | --- | --- | --- | --- | --- | --- | --- | --- | --- | --- | --- | --- | --- |
| O=C(OCC(Cl)CCl)c1c(Br)cccc1Oc1ncc(Cl)cn1 (centres unmarked) [Compound 97] | 0 | 0 | 0 | 10 | 40 | 70 | 0 | 0 | 0 | 20 | 0 | 0 | 20 | 30 | 10 | 20 | 0 | 20 | 10 | 10 | Galium plant response rating ([10]; 31 g ai/ha): 100; Galium plant response rating ([10]; 125 g ai/ha): 100; Foxtail, Giant plant response rating ([11]; 31 g ai/ha): 10; Foxtail, Giant plant response rating ([11]; 125 g ai/ha): 60; Kochia plant response rating (kochia (Kochia scoparia) [12]; 125 g ai/ha): 40; Pigweed plant response rating ([13]; 31 g ai/ha): 20; Pigweed plant response rating ([13]; 125 g ai/ha): 50; Ragweed plant response rating ([14]; 31 g ai/ha): 10; Ragweed plant response rating ([14]; 125 g ai/ha): 20; Wheat plant response rating ([15]; 31 g ai/ha): 0; Wheat plant response rating ([15]; 125 g ai/ha): 0; Plant response rating, Barnyardgrass [16]: 0; Plant response rating, Ducksalad [17]: 70; Plant response rating, Rice (rice (Oryza sativa)): 0; Plant response rating, Sedge, Umbrella [18]: 75 |
| CC(=NOCCC(F)(F)F)c1c(Br)cccc1Oc1ncc(Cl)cn1 [Compound 98] | 0 | 0 | 0 | 30 | 0 | 40 | 0 | 0 | 0 | 0 | 0 | 0 | 0 | 0 | 0 | 10 | 0 | 10 | 0 | 10 | Galium plant response rating ([10]; 31 g ai/ha): 10; Galium plant response rating ([10]; 125 g ai/ha): 50; Foxtail, Giant plant response rating ([11]; 31 g ai/ha): 0; Foxtail, Giant plant response rating ([11]; 125 g ai/ha): 20; Kochia plant response rating (kochia (Kochia scoparia) [12]; 31 g ai/ha): 0; Kochia plant response rating (kochia (Kochia scoparia) [12]; 125 g ai/ha): 0; Pigweed plant response rating ([13]; 31 g ai/ha): 30; Pigweed plant response rating ([13]; 125 g ai/ha): 90; Ragweed plant response rating ([14]; 31 g ai/ha): 0; Ragweed plant response rating ([14]; 125 g ai/ha): 10; Wheat plant response rating ([15]; 31 g ai/ha): 0; Wheat plant response rating ([15]; 125 g ai/ha): 10; Plant response rating, Barnyardgrass [16]: 0; Plant response rating, Ducksalad [17]: 0; Plant response rating, Rice (rice (Oryza sativa)): 0; Plant response rating, Sedge, Umbrella [18]: 0 |
| Cc1cccc(Oc2ncc(Cl)cn2)c1C(=O)OCCC(F)(F)F [Compound 99] | 0 | 30 | 70 | 100 | 90 | 100 | 40 | 80 | 50 | 90 | 0 | 10 | 0 | 50 | 30 | 80 | 30 | 80 | 0 | 50 | Galium plant response rating ([10]; 31 g ai/ha): 20; Galium plant response rating ([10]; 125 g ai/ha): 70; Foxtail, Giant plant response rating ([11]; 31 g ai/ha): 50; Foxtail, Giant plant response rating ([11]; 125 g ai/ha): 90; Kochia plant response rating (kochia (Kochia scoparia) [12]; 31 g ai/ha): 20; Kochia plant response rating (kochia (Kochia scoparia) [12]; 125 g ai/ha): 40; Pigweed plant response rating ([13]; 31 g ai/ha): 10; Pigweed plant response rating ([13]; 125 g ai/ha): 40; Ragweed plant response rating ([14]; 31 g ai/ha): 10; Ragweed plant response rating ([14]; 125 g ai/ha): 30; Wheat plant response rating ([15]; 31 g ai/ha): 0; Wheat plant response rating ([15]; 125 g ai/ha): 30; Plant response rating, Barnyardgrass [16]: 60; Plant response rating, Ducksalad [17]: 100; Plant response rating, Rice (rice (Oryza sativa)): 40; Plant response rating, Sedge, Umbrella [18]: 90 |
| CCCCOC(=O)c1c(Br)cccc1Oc1ncc(Cl)cn1 [Compound 100] | 0 | 0 | 40 | 100 | 50 | 100 | 0 | 0 | 0 | 60 | 0 | 0 | 0 | 20 | 10 | 50 | 0 | 40 | 10 | 10 | Galium plant response rating ([10]; 31 g ai/ha): 20; Galium plant response rating ([10]; 125 g ai/ha): 70; Foxtail, Giant plant response rating ([11]; 31 g ai/ha): 20; Foxtail, Giant plant response rating ([11]; 125 g ai/ha): 70; Kochia plant response rating (kochia (Kochia scoparia) [12]; 31 g ai/ha): 60; Kochia plant response rating (kochia (Kochia scoparia) [12]; 125 g ai/ha): 80; Pigweed plant response rating ([13]; 31 g ai/ha): 30; Pigweed plant response rating ([13]; 125 g ai/ha): 70; Ragweed plant response rating ([14]; 31 g ai/ha): 0; Ragweed plant response rating ([14]; 125 g ai/ha): 0; Wheat plant response rating ([15]; 31 g ai/ha): 0; Wheat plant response rating ([15]; 125 g ai/ha): 0; Plant response rating, Barnyardgrass [16]: 40; Plant response rating, Ducksalad [17]: 90; Plant response rating, Rice (rice (Oryza sativa)): 0; Plant response rating, Sedge, Umbrella [18]: 70 |
| CCCCCOC(=O)c1c(Br)cccc1Oc1ncc(Cl)cn1 [Compound 101] | 0 | 0 | 0 | 10 | 0 | 40 | 0 | 0 | 0 | 0 | 0 | 0 | 0 | 10 | 10 | 20 | 0 | 0 | 0 | 0 | Galium plant response rating ([10]; 31 g ai/ha): 10; Galium plant response rating ([10]; 125 g ai/ha): 40; Foxtail, Giant plant response rating ([11]; 31 g ai/ha): 0; Foxtail, Giant plant response rating ([11]; 125 g ai/ha): 20; Kochia plant response rating (kochia (Kochia scoparia) [12]; 31 g ai/ha): 0; Kochia plant response rating (kochia (Kochia scoparia) [12]; 125 g ai/ha): 20; Pigweed plant response rating ([13]; 31 g ai/ha): 20; Pigweed plant response rating ([13]; 125 g ai/ha): 60; Ragweed plant response rating ([14]; 31 g ai/ha): 0; Ragweed plant response rating ([14]; 125 g ai/ha): 0; Wheat plant response rating ([15]; 31 g ai/ha): 0; Wheat plant response rating ([15]; 125 g ai/ha): 0; Plant response rating, Barnyardgrass [16]: 0; Plant response rating, Ducksalad [17]: 0; Plant response rating, Rice (rice (Oryza sativa)): 0; Plant response rating, Sedge, Umbrella [18]: 0 |
